Source: EP0514268A1, “Substituted amino acid azetidinyl pyridone derivatives, their preparation and use as medicines” (LABORATORIOS DEL DR. ESTEVE, S.A., priority 1991, dated 1992)
≈ marks a conversion by molar mass, not a printed value.

Assays:
[1] = tested on: Citr. freundii ATCC 11606; assay: Antimicrobial activity, agar dilution; format: cell-based, Citrobacter freundii; details: Citrobacter freundii, ATCC11606, 20 h, Agar Dextrose dilutions, 37°C, 20 heures, read-out: Activité pharmacologique antimicrobienne (concentrations)
Excerpt: (§1) L'activité pharmacologique antimicrobienne de ces composés a été étudiée selon les références exposées ci-dessous.
(§2) Activité pharmacologique antimicrobienne : G.L. Daquet et Y.A. Chabbect, techniques en bactériologie, Vol. 3, Flammarion Médecine-Sciences, Paris 1972, et W.B. Hugo et A.D. Rusell, Pharmaceutical Microbiology, Blackwell Scientific Publications, London, 1977.
(§3) Milieu de culture et solvant : Agar d'antibiotiques n° 1 (Oxoid CM 327) Bouillon de triptone-soja (Oxoid CM 129) Solution Physiologique Ringer 1/4 (Oxoid BR 52) Agar Dextrose (BBL 11165)
(§4) Microorganismes : "Bacillus subtilis" ATCC 6633 "Citrobacter freundii" ATCC 112606 "Enterobacter aerogenes" ATCC 15038 "Enterobacter cloacae" ATCC 23355 "Bacillus cereus" ATCC 1178 "Escherichia coli" ATCC 10799 "Escherichia coli" ATCC 23559 "Klebsiella pneumoniae" ATCC 10031 "Proteus vulgaris" ATCC 8427 "Morg. morganii" ATCC 8019 "Pseudomonas aeruginosa" ATCC 9721 "Pseudomonas aeruginosa" ATCC 10145 "Salmonella typhimurium" ATCC 14028 "Salmonella typhimurium" ATCC 6539 "Serratia marcescens" ATCC 13880 "Shigella flexnerii" ATCC 12022 "Staphylococcusepidermis" ATCC 155-1 "Staphylococcus aureus" ATCC 25178 "Streptococcus faecalis" ATCC 10541.
(§5) Chacun des microorganismes est ensemencé par strie dans des tubes d'Agar d'antibiotiques n° 1, et mis en incubation pendant 20 heures à 37°C. Ensuite, on prend une anse de culture, on ensemence dans un bouillon de Triptone-soja et on incube pendant 20 heures à 37°C. On dilue à 1/4 la culture obtenue avec une solution physiologique Ringer, de façon à obtenir une suspension normalisée de […] pour chaque organisme.
(§6) A partir d'une solution de 100 µg/ml, chaque produit est dilué dans l'Agar Dextrose (préalablement fondu et maintenu à 50°C) par dilutions successives de façon à obtenir les concentrations suivantes : 64-32-16-8-4-2-1-0,5-0,25-0,125 µg de dérivé/ml du milieu.
(§7) Postérieurement, chaque concentration de chaque produit est répartie dans des boîtes de Petri de 10 cm de diamètre, à raison de 10 ml de milieu par boîte et autant de boîtes que de microorganismes à tester.
(§8) Une fois le milieu refroidi, les boîtes sont ensemencées avec les inoculations à raison de 0,4 ml d'inoculation par boîte. On les étend avec une anse de Driglasky et on recueille le surnageant. Les boîtes ensemencées sont incubées à 37°C pendant 20 heures.
(§9) Les résultats obtenus sont décrits dans les tableaux suivants. Les concentrations sont données en µg/ml.

[2] = tested on: Escherichia coli ATCC 10799; assay: Antimicrobial activity, agar dilution; format: cell-based; details: Escherichia coli, ATCC10799, 20 h, Agar Dextrose dilutions, 37°C, 20 heures, read-out: Activité pharmacologique antimicrobienne (concentrations)
Excerpt: as §1, §2, §3, §4, §5, §6, §7, §8, §9

[3] = tested on: Staph. epidermidis ATCC 155-1; assay: Antimicrobial activity, agar dilution; format: cell-based; details: Staphylococcus epidermidis, ATCC155, 20 h, Agar Dextrose dilutions, 37°C, 20 heures, read-out: Activité pharmacologique antimicrobienne (concentrations)
Excerpt: as §1, §2, §3, §4, §5, §6, §7, §8, §9

[4] = tested on: Ps. aeruginosa ATCC 10145; assay: Antimicrobial activity, agar dilution; format: cell-based; details: Pseudomonas aeruginosa, ATCC10145, 20 h, Agar Dextrose dilutions, 37°C, 20 heures, read-out: Activité pharmacologique antimicrobienne (concentrations)
Excerpt: as §1, §2, §3, §4, §5, §6, §7, §8, §9

[5] = tested on: Proteus vulgaris ATCC 8427; assay: Antimicrobial activity, agar dilution; format: cell-based; details: Proteus vulgaris, ATCC8427, 20 h, Agar Dextrose dilutions, 37°C, 20 heures, read-out: Activité pharmacologique antimicrobienne (concentrations)
Excerpt: as §1, §2, §3, §4, §5, §6, §7, §8, §9

[6] = tested on: Shigella flexnerii ATCC 12022; assay: Antimicrobial activity, agar dilution; format: cell-based; details: ATCC12022, 20 h, Agar Dextrose dilutions, 37°C, 20 heures, read-out: Activité pharmacologique antimicrobienne (concentrations)
Excerpt: as §1, §2, §3, §4, §5, §6, §7, §8, §9

Morg. morganii ATCC 8019 = assay: Antimicrobial activity, agar dilution; format: cell-based; details: Morganella morganii, ATCC8019, 20 h, Agar Dextrose dilutions, 37°C, 20 heures, read-out: Activité pharmacologique antimicrobienne (concentrations)
Excerpt: as §1, §2, §3, §4, §5, §6, §7, §8, §9

Ps. aeruginosa ATCC 9721 = assay: Antimicrobial activity, agar dilution; format: cell-based; details: Pseudomonas aeruginosa, ATCC9721, 20 h, Agar Dextrose dilutions, 37°C, 20 heures, read-out: Activité pharmacologique antimicrobienne (concentrations)
Excerpt: as §1, §2, §3, §4, §5, §6, §7, §8, §9

Sal. typhi ATCC 6539 = assay: Antimicrobial activity, agar dilution; format: cell-based; details: Salmonella enterica, 20 h, read-out: Activité pharmacologique antimicrobienne (concentrations)
Excerpt: as §1, §2, §3, §4, §5, §6, §7, §8, §9

[7] = tested on: Bacillus subtilis ATCC 6633; assay: Antimicrobial activity, agar dilution; format: cell-based; details: ATCC6633, 20 h, Agar Dextrose dilutions, 37°C, 20 heures, read-out: Activité pharmacologique antimicrobienne (concentrations)
Excerpt: as §1, §2, §3, §4, §5, §6, §7, §8, §9

[8] = tested on: Bacillus cereus ATCC 11778; assay: Antimicrobial activity, agar dilution; format: cell-based; details: Bacillus cereus, ATCC11778, 20 h, Agar Dextrose dilutions, 37°C, 20 heures, read-out: Activité pharmacologique antimicrobienne (concentrations)
Excerpt: as §1, §2, §3, §4, §5, §6, §7, §8, §9

[9] = tested on: Escherichia coli ATCC 23559; assay: Antimicrobial activity, agar dilution; format: cell-based; details: Escherichia coli, ATCC23559, 20 h, Agar Dextrose dilutions, 37°C, 20 heures, read-out: Activité pharmacologique antimicrobienne (concentrations)
Excerpt: as §1, §2, §3, §4, §5, §6, §7, §8, §9

[10] = tested on: Serr. marcescens ATCC 13880; assay: Antimicrobial activity, agar dilution; format: cell-based, Serratia marcescens; details: Serratia marcescens, ATCC13880, 20 h, Agar Dextrose dilutions, 37°C, 20 heures, read-out: Activité pharmacologique antimicrobienne (concentrations)
Excerpt: as §1, §2, §3, §4, §5, §6, §7, §8, §9

Ent. cloacae ATCC 23355 = assay: Antimicrobial activity, agar dilution; format: cell-based, Enterobacter cloacae; details: Enterobacter cloacae, ATCC23355, 20 h, Agar Dextrose dilutions, 37°C, 20 heures, read-out: Activité pharmacologique antimicrobienne (concentrations)
Excerpt: as §1, §2, §3, §4, §5, §6, §7, §8, §9

[11] = tested on: Ent. aerogenes ATCC 15038; assay: Antimicrobial activity, agar dilution; format: cell-based, Enterobacter aerogenes; details: Klebsiella aerogenes, ATCC15038, 20 h, Agar Dextrose dilutions, 37°C, 20 heures, read-out: Activité pharmacologique antimicrobienne (concentrations)
Excerpt: as §1, §2, §3, §4, §5, §6, §7, §8, §9

Staph. aureus ATCC 25178 = assay: Antimicrobial activity, agar dilution; format: cell-based, Staphylococcus aureus; details: Staphylococcus aureus, ATCC25178, 20 h, Agar Dextrose dilutions, 37°C, 20 heures, read-out: Activité pharmacologique antimicrobienne (concentrations)
Excerpt: as §1, §2, §3, §4, §5, §6, §7, §8, §9

[12] = Solubility in water and at pH 7.4; format: physicochemical
Excerpt: Un grand nombre des composés de l'invention manifestent une augmentation de la solubilité dans l'eau ainsi que de la solubilité à pH 7,4 lorsqu'on compare avec les composés de référence. L'augmentation de solubilité au pH physiologique peut favoriser l'absorption du produit et la solubilité élevée dans l'eau permet l'administration du composé par voie parentérale.

[13] = tested on: Sal. typhimurium ATCC 14028; assay: Antimicrobial activity, agar dilution; format: cell-based, Salmonella typhimurium; details: Salmonella enterica, 20 h, Agar Dextrose dilutions, 37°C, 20 heures, read-out: Activité pharmacologique antimicrobienne (concentrations)
Excerpt: as §1, §2, §3, §4, §5, §6, §7, §8, §9

[14] = tested on: Strep. faecalis ATCC 10541; assay: Antimicrobial activity, agar dilution; format: cell-based, Streptococcus faecalis; details: Enterococcus faecalis, ATCC10541, 20 h, Agar Dextrose dilutions, 37°C, 20 heures, read-out: Activité pharmacologique antimicrobienne (concentrations)
Excerpt: as §1, §2, §3, §4, §5, §6, §7, §8, §9

[15] = tested on: Kleb. pneumoniae ATCC 10031; assay: Antimicrobial activity, agar dilution; format: cell-based, Klebsiella pneumoniae; details: Klebsiella pneumoniae, ATCC10031, 20 h, Agar Dextrose dilutions, 37°C, 20 heures, read-out: Activité pharmacologique antimicrobienne (concentrations)
Excerpt: as §1, §2, §3, §4, §5, §6, §7, §8, §9

With `C[C@H](N)C(=O)N[C@@H]1CN(c2cc3c(cc2F)c(=O)c(C(=O)O)cn3-c2ccc(F)cc2F)[C@H]1C` [Exemple 4eA] the MIC [1] was 2 µg/mL (≈ 4.22 µM), the MIC [2] was 2 µg/mL (≈ 4.22 µM) and the MIC [3] was 16 µg/mL (≈ 33.7 µM). The MIC [4] was 8 µg/mL (≈ 16.9 µM), the MIC [5] was 16 µg/mL (≈ 33.7 µM) and the MIC [6] was 0.5 µg/mL (≈ 1.05 µM). For the same compound, the MIC (Morg. morganii ATCC 8019) was 4 µg/mL (≈ 8.43 µM), the MIC (Ps. aeruginosa ATCC 9721) was 8 µg/mL (≈ 16.9 µM) and the MIC (Sal. typhi ATCC 6539) was 2 µg/mL (≈ 4.22 µM). For the same compound, the MIC [7] was 0.5 µg/mL (≈ 1.05 µM), the MIC [8] was 1 µg/mL (≈ 2.11 µM) and the MIC [9] was 1 µg/mL (≈ 2.11 µM). For the same compound, the MIC [10] was 8 µg/mL (≈ 16.9 µM), the MIC (Ent. cloacae ATCC 23355) was 2 µg/mL (≈ 4.22 µM) and the MIC [11] was 2 µg/mL (≈ 4.22 µM). The MIC (Staph. aureus ATCC 25178) was 1 µg/mL (≈ 2.11 µM), the solubility ([12]; pH 7) was greater than 500 µg/mL and the solubility ([12]; water) was greater than 500 µg/mL. For the same compound, the MIC [13] was 2 µg/mL (≈ 4.22 µM), the MIC [14] was 8 µg/mL (≈ 16.9 µM) and the MIC [15] was 2 µg/mL (≈ 4.22 µM).
